Tested on: MV-4-11 cells
Test: Gene expression microarray analysis (Affymetrix PrimeView) and GSEA
Assay type: cell-based, human
Parameters: RFU PODN (11730768_x_at) / Fold change /veh PODN (11730768_x_at) / RFU LINC00158 (11744669_a_at) / Fold change /veh LINC00158 (11744669_a_at) / RFU DUSP10 (11751237_a_at) / Fold change /veh DUSP10 (11751237_a_at) / RFU ID3 (11757404_x_at) / Fold change /veh ID3 (11757404_x_at) / RFU PLEKHG5 (11737974_s_at) / Fold change /veh PLEKHG5 (11737974_s_at) / RFU LRRC4B (11730491_at) / Fold change /veh LRRC4B (11730491_at) / RFU GIMAP4 (11747438_a_at) / Fold change /veh GIMAP4 (11747438_a_at) / RFU KRT8 (11758183_x_at) / Fold change /veh KRT8 (11758183_x_at) / RFU CNN1 (11734310_a_at) / Fold change /veh CNN1 (11734310_a_at) / RFU VPS37D (11726825_at) / Fold change /veh VPS37D (11726825_at) / RFU C10orf10 (11716522_x_at) / Fold change /veh C10orf10 (11716522_x_at) / RFU KIR2DL2 /// KIR2DL4 /// KIR2DL5A /// KIR2DL5B /// KIR2DS1 /// KIR2DS2 /// KIR2DS3 /// KIR2DS4 /// KIR3DL3 /// KIR3DL3 /// KIR3DS1 (11738374_at) / Fold change /veh KIR2DL2 /// KIR2DL4 /// KIR2DL5A /// KIR2DL5B /// KIR2DS1 /// KIR2DS2 /// KIR2DS3 /// KIR2DS4 /// KIR3DL3 /// KIR3DL3 /// KIR3DS1 (11738374_at) / RFU C1QL1 (11718748_at) / Fold change /veh C1QL1 (11718748_at) / RFU TMPRSS4 (11747572_a_at) / Fold change /veh TMPRSS4 (11747572_a_at) / RFU HAMP (11756126_x_at) / Fold change /veh HAMP (11756126_x_at) / RFU RNFT2 (11725882_a_at) / Fold change /veh RNFT2 (11725882_a_at) / RFU NR4A2 (11747474_a_at) / Fold change /veh NR4A2 (11747474_a_at) / RFU ABCC12 (11746883_a_at) / Fold change /veh ABCC12 (11746883_a_at) / RFU TMEM136 (11760407_x_at) / Fold change /veh TMEM136 (11760407_x_at) / RFU CLDN22 /// WWC2 (11732394_at) / Fold change /veh CLDN22 /// WWC2 (11732394_at) / RFU HLA-DPB1 (11760878_x_at) / Fold change /veh HLA-DPB1 (11760878_x_at) / RFU SPINT1 (11716480_a_at) / Fold change /veh SPINT1 (11716480_a_at) / RFU GAP43 (11754022_s_at) / Fold change /veh GAP43 (11754022_s_at) / RFU A4GNT (11735810_at) / Fold change /veh A4GNT (11735810_at) / RFU PRB3 (11715151_x_at) / Fold change /veh PRB3 (11715151_x_at) / RFU TUBB4B (11761932_at) / Fold change /veh TUBB4B (11761932_at) / RFU CAPN14 (11732068_a_at) / Fold change /veh CAPN14 (11732068_a_at) / RFU TMCC2 (11721928_a_at) / Fold change /veh TMCC2 (11721928_a_at) / RFU IRGQ (11745062_a_at) / Fold change /veh IRGQ (11745062_a_at) / RFU FAM174B (11720279_a_at) / Fold change /veh FAM174B (11720279_a_at) / RFU TMPRSS4 (11748680_a_at) / Fold change /veh TMPRSS4 (11748680_a_at) / RFU FAM212B (11763350_a_at) / Fold change /veh FAM212B (11763350_a_at) / RFU PLEKHG5 (11743358_a_at) / Fold change /veh PLEKHG5 (11743358_a_at) / RFU ZSCAN30 (11745921_a_at) / Fold change /veh ZSCAN30 (11745921_a_at) / RFU CMKLR1 (11741424_a_at) / Fold change /veh CMKLR1 (11741424_a_at) / RFU LOC101060620 /// MAPK8IP1 (11723275_at) / Fold change /veh LOC101060620 /// MAPK8IP1 (11723275_at) / RFU SPTSSB (11747773_x_at) / Fold change /veh SPTSSB (11747773_x_at) / RFU PRSS12 (11739890_at) / Fold change /veh PRSS12 (11739890_at) / RFU BIN1 (11741810_x_at) / Fold change /veh BIN1 (11741810_x_at) / RFU WNT11 (11732464_a_at) / Fold change /veh WNT11 (11732464_a_at) / RFU C10orf10 (11716521_a_at) / Fold change /veh C10orf10 (11716521_a_at) / RFU C5orf56 (11738089_at) / Fold change /veh C5orf56 (11738089_at) / RFU CYB561 (11721691_x_at) / Fold change /veh CYB561 (11721691_x_at) / RFU ANKRD19P (11752326_a_at) / Fold change /veh ANKRD19P (11752326_a_at) / RFU OR2T12 /// OR2T33 /// OR2T8 (11738714_s_at) / Fold change /veh OR2T12 /// OR2T33 /// OR2T8 (11738714_s_at) / RFU VCAN (11748164_a_at) / Fold change /veh VCAN (11748164_a_at) / RFU JSRP1 (11732532_at) / Fold change /veh JSRP1 (11732532_at) / RFU KRTAP10-11 (11738290_x_at) / Fold change /veh KRTAP10-11 (11738290_x_at) / RFU MYO3A (11730013_a_at) / Fold change /veh MYO3A (11730013_a_at) / RFU EBF3 (11725865_a_at) / Fold change /veh EBF3 (11725865_a_at) / RFU CAMK2N1 (11719241_x_at) / Fold change /veh CAMK2N1 (11719241_x_at) / RFU C5orf56 (11738088_a_at) / Fold change /veh C5orf56 (11738088_a_at) / RFU OLFML3 (11715873_a_at) / Fold change /veh OLFML3 (11715873_a_at) / RFU LOC100653217 /// NTM (11731650_a_at) / Fold change /veh LOC100653217 /// NTM (11731650_a_at) / RFU MAPK11 (11762145_a_at) / Fold change /veh MAPK11 (11762145_a_at) / RFU FIZ1 (11724087_x_at) / Fold change /veh FIZ1 (11724087_x_at) / RFU OASL (11726364_x_at) / Fold change /veh OASL (11726364_x_at) / RFU SOX15 (11748057_x_at) / Fold change /veh SOX15 (11748057_x_at) / RFU CD79A (11719716_a_at) / Fold change /veh CD79A (11719716_a_at) / RFU HIST1H1D (11736915_at) / Fold change /veh HIST1H1D (11736915_at) / RFU CASKIN2 (11723855_a_at) / Fold change /veh CASKIN2 (11723855_a_at) / RFU LOC730098 (11760151_x_at) / Fold change /veh LOC730098 (11760151_x_at) / RFU OR4N2 (11742367_at) / Fold change /veh OR4N2 (11742367_at) / RFU PRRT2 (11749266_a_at) / Fold change /veh PRRT2 (11749266_a_at) / RFU SNX32 (11753110_a_at) / Fold change /veh SNX32 (11753110_a_at) / RFU CDHR5 (11726645_a_at) / Fold change /veh CDHR5 (11726645_a_at) / RFU RCAN1 (11760418_a_at) / Fold change /veh RCAN1 (11760418_a_at) / RFU FAM167A (11723789_a_at) / Fold change /veh FAM167A (11723789_a_at) / RFU FAM26E (11764081_at) / Fold change /veh FAM26E (11764081_at) / RFU ISYNA1 (11749810_s_at) / Fold change /veh ISYNA1 (11749810_s_at) / RFU ACY1 (11761880_at) / Fold change /veh ACY1 (11761880_at) / RFU 11764098_at / Fold change /veh 11764098_at / RFU SAMD14 (11745864_x_at) / Fold change /veh SAMD14 (11745864_x_at) / RFU NPB (11741838_a_at) / Fold change /veh NPB (11741838_a_at) / RFU TMPRSS6 (11731388_a_at) / Fold change /veh TMPRSS6 (11731388_a_at) / RFU KRTAP10-2 (11738614_at) / Fold change /veh KRTAP10-2 (11738614_at) / RFU ARHGAP8 /// PRR5-ARHGAP8 (11727945_x_at) / Fold change /veh ARHGAP8 /// PRR5-ARHGAP8 (11727945_x_at) / RFU KRTAP5-7 /// NADSYN1 (11734609_at) / Fold change /veh KRTAP5-7 /// NADSYN1 (11734609_at) / RFU RASL12 (11751679_a_at) / Fold change /veh RASL12 (11751679_a_at) / RFU CDKN2B (11736163_a_at) / Fold change /veh CDKN2B (11736163_a_at) / RFU PRF1 (11729649_at) / Fold change /veh PRF1 (11729649_at) / RFU, ZNF638 /// ZNF638-IT1 / Fold change vs veh, ZNF638 /// ZNF638-IT1 / RFU, PANK3 / Fold change vs veh, PANK3 / RFU, SH3YL1 / Fold change vs veh, SH3YL1 / RFU, ZEB2 / Fold change vs veh, ZEB2 / RFU, NRIP1 / Fold change vs veh, NRIP1 / RFU, PTTG1IP / Fold change vs veh, PTTG1IP / RFU, CAPN2 / Fold change vs veh, CAPN2 / RFU, MED14 / Fold change vs veh, MED14 / RFU, SNORA58 / Fold change vs veh, SNORA58 / RFU, C1orf63 / Fold change vs veh, C1orf63 / RFU, LRRFIP1 / Fold change vs veh, LRRFIP1 / RFU, NDUFAF7 / Fold change vs veh, NDUFAF7 / RFU, SLC12A2 / Fold change vs veh, SLC12A2 / RFU, IBTK / Fold change vs veh, IBTK / RFU, ESF1 / Fold change vs veh, ESF1 / Fold change vs veh, TMEM50B / RFU, TAOK1 / Fold change vs veh, TAOK1 / RFU, ACBD3 / Fold change vs veh, ACBD3 / RFU, TMA16 / Fold change vs veh, TMA16 / RFU, RWDD3 / Fold change vs veh, RWDD3 / RFU, BCAT1 / Fold change vs veh, BCAT1 / RFU, EDEM3 / Fold change vs veh, EDEM3 / RFU, TMEM33 / Fold change vs veh, TMEM33 / RFU, WDR75 / Fold change vs veh, WDR75 / RFU, AHCTF1 / Fold change vs veh, AHCTF1 / RFU, TFRC / Fold change vs veh, TFRC / RFU, ZDHHC17 / Fold change vs veh, ZDHHC17 / RFU, NOM1 / Fold change vs veh, NOM1 / RFU, ARL8B / Fold change vs veh, ARL8B / RFU, ZBTB11 / Fold change vs veh, ZBTB11 / RFU, TAMM41 / Fold change vs veh, TAMM41 / RFU, KIAA1704 /// LOC100996395 / Fold change vs veh, KIAA1704 /// LOC100996395 / RFU, ING1 / Fold change vs veh, ING1 / RFU, TRMT61B / Fold change vs veh, TRMT61B / RFU, FUBP3 / Fold change vs veh, FUBP3 / RFU, TP53 / Fold change vs veh, TP53 / RFU, TNKS2 / Fold change vs veh, TNKS2 / RFU, ZFP14 / Fold change vs veh, ZFP14 / RFU, ACTR2 / Fold change vs veh, ACTR2 / RFU, PPP3R1 / Fold change vs veh, PPP3R1 / RFU, PIK3R1 / Fold change vs veh, PIK3R1 / RFU, HNRNPA1 / Fold change vs veh, HNRNPA1 / RFU, RNF170 / Fold change vs veh, RNF170 / RFU, ZNF28 / Fold change vs veh, ZNF28 / RFU, RNGTT / Fold change vs veh, RNGTT / RFU, OGT / Fold change vs veh, OGT / RFU, BRD1 / Fold change vs veh, BRD1 / RFU, MARS / Fold change vs veh, MARS / RFU, ZNF655 / Fold change vs veh, ZNF655 / RFU, FAHD1 / Fold change vs veh, FAHD1 / RFU, BDP1 / Fold change vs veh, BDP1 / RFU, LRRCC1 / Fold change vs veh, LRRCC1 / RFU, ARID1A / Fold change vs veh, ARID1A / RFU, ZNF146 / Fold change vs veh, ZNF146 / RFU, ZNF330 / Fold change vs veh, ZNF330 / RFU, GPN3 / Fold change vs veh, GPN3 / RFU, C9orf123 / Fold change vs veh, C9orf123 / RFU, N4BP2L2 / Fold change vs veh, N4BP2L2 / RFU, ARFIP1 / Fold change vs veh, ARFIP1 / RFU, FAM179B / Fold change vs veh, FAM179B / RFU, BCL10 / Fold change vs veh, BCL10 / RFU, UHRF1BP1L / Fold change vs veh, UHRF1BP1L / RFU, BET1 / Fold change vs veh, BET1 / RFU, CNOT2 / Fold change vs veh, CNOT2 / RFU, ZNF268 / Fold change vs veh, ZNF268 / Fold change vs veh, ZNF507 / RFU, DGCR2 / Fold change vs veh, DGCR2 / RFU, WDSUB1 / Fold change vs veh, WDSUB1 / Fold change vs veh, HSP90B1 /// MIR3652 / RFU, ADSS / Fold change vs veh, ADSS / RFU, GK / Fold change vs veh, GK / RFU, ZNF148 / Fold change vs veh, ZNF148 / RFU, TAF9 / Fold change vs veh, TAF9 / RFU, SLC1A5 / Fold change vs veh, SLC1A5 / RFU, SLMO2 / Fold change vs veh, SLMO2 / RFU, ABCC4 / Fold change vs veh, ABCC4 / RFU, LOC101060439 /// RAP1B / Fold change vs veh, LOC101060439 /// RAP1B / RFU, RFX7 / Fold change vs veh, RFX7 / RFU, GTPBP10 / Fold change vs veh, GTPBP10 / RFU, CNEP1R1 / Fold change vs veh, CNEP1R1 / RFU, BIVM-ERCC5 /// ERCC5 / Fold change vs veh, BIVM-ERCC5 /// ERCC5 / RFU, ILF3 / Fold change vs veh, ILF3 / RFU 11762660_at / Fold change /veh 11762660_at / RFU VCAN (11757783_s_at) / Fold change /veh VCAN (11757783_s_at) / RFU DDX43 (11728927_at) / Fold change /veh DDX43 (11728927_at) / RFU KRT8 (11758188_x_at) / Fold change /veh KRT8 (11758188_x_at) / RFU NKD1 (11759106_at) / Fold change /veh NKD1 (11759106_at) / RFU SRD5A1 (11742802_a_at) / Fold change /veh SRD5A1 (11742802_a_at) / RFU TPSAB1 /// TPSB2 (11721975_s_at) / Fold change /veh TPSAB1 /// TPSB2 (11721975_s_at) / RFU GSTM3 (11746129_a_at) / Fold change /veh GSTM3 (11746129_a_at) / RFU IL23R (11737362_x_at) / Fold change /veh IL23R (11737362_x_at) / RFU TMEM51 (11727254_a_at) / Fold change /veh TMEM51 (11727254_a_at) / RFU PIWIL2 (11732686_x_at) / Fold change /veh PIWIL2 (11732686_x_at) / RFU ORM1 (11744905_x_at) / Fold change /veh ORM1 (11744905_x_at) / RFU CCDC152 (11743942_at) / Fold change /veh CCDC152 (11743942_at) / RFU ECM1 (11717891_a_at) / Fold change /veh ECM1 (11717891_a_at) / RFU IL23R (11748794_a_at) / Fold change /veh IL23R (11748794_a_at) / RFU TNFAIP8L3 (11732012_x_at) / Fold change /veh TNFAIP8L3 (11732012_x_at) / RFU MBOAT4 (11741988_at) / Fold change /veh MBOAT4 (11741988_at) / RFU 11764193_at / Fold change /veh 11764193_at / RFU TMEM53 (11763286_at) / Fold change /veh TMEM53 (11763286_at) / RFU MAGEB2 (11727129_at) / Fold change /veh MAGEB2 (11727129_at) / RFU TMEM200A (11744735_a_at) / Fold change /veh TMEM200A (11744735_a_at) / RFU CCDC152 (11751479_a_at) / Fold change /veh CCDC152 (11751479_a_at) / RFU FAM211A (11726209_a_at) / Fold change /veh FAM211A (11726209_a_at) / RFU RGS16 (11746705_a_at) / Fold change /veh RGS16 (11746705_a_at) / RFU VCAN (11755009_s_at) / Fold change /veh VCAN (11755009_s_at) / RFU RHOB (11743442_s_at) / Fold change /veh RHOB (11743442_s_at) / RFU RGS16 (11720943_a_at) / Fold change /veh RGS16 (11720943_a_at) / RFU RGS16 (11720944_at) / Fold change /veh RGS16 (11720944_at) / RFU, VPS4B / Fold change vs veh, VPS4B / RFU, CREB1 / Fold change vs veh, CREB1 / RFU, DNAJC13 / Fold change vs veh, DNAJC13 / RFU, GNAQ / Fold change vs veh, GNAQ / RFU, CDK5R1 / Fold change vs veh, CDK5R1 / RFU, ZRANB3 / Fold change vs veh, ZRANB3 / RFU, CUL4A / Fold change vs veh, CUL4A / RFU, CCNY / Fold change vs veh, CCNY / RFU, UFL1 / Fold change vs veh, UFL1 / RFU, COG3 / Fold change vs veh, COG3 / RFU, DIAPH2 / Fold change vs veh, DIAPH2 / RFU, SKA2 / Fold change vs veh, SKA2 / RFU, AFF3 / Fold change vs veh, AFF3 / RFU, LMF1 / Fold change vs veh, LMF1 / RFU, IPO11 / Fold change vs veh, IPO11 / RFU, DFFB / Fold change vs veh, DFFB / RFU, FOXP1 / Fold change vs veh, FOXP1 / RFU, CARD8 / Fold change vs veh, CARD8 / RFU, STRN3 / Fold change vs veh, STRN3 / RFU, ADK / Fold change vs veh, ADK / RFU, RASSF2 / Fold change vs veh, RASSF2 / RFU, WIPF1 / Fold change vs veh, WIPF1 / RFU, LARP1B / Fold change vs veh, LARP1B / RFU, RASA1 / Fold change vs veh, RASA1 / RFU, RB1 / Fold change vs veh, RB1 / RFU, PPFIA1 / Fold change vs veh, PPFIA1 / RFU, MAT2A / Fold change vs veh, MAT2A / RFU, CCT5 / Fold change vs veh, CCT5 / RFU, WDR92 / Fold change vs veh, WDR92 / RFU, CUX1 / Fold change vs veh, CUX1 / RFU, TTC7A / Fold change vs veh, TTC7A / RFU, TMEM135 / Fold change vs veh, TMEM135 / RFU, DEPTOR / Fold change vs veh, DEPTOR / RFU, CPM / Fold change vs veh, CPM / RFU, DNAJB6 / Fold change vs veh, DNAJB6 / RFU, CACNA2D3 / Fold change vs veh, CACNA2D3 / RFU, DTX4 / Fold change vs veh, DTX4 / RFU, TFCP2 / Fold change vs veh, TFCP2 / RFU, GMCL1 /// GMCL1P1 / Fold change vs veh, GMCL1 /// GMCL1P1 / RFU, AEBP2 / Fold change vs veh, AEBP2 / RFU, SNHG1 /// SNORD22 /// SNORD25 /// SNORD26 /// SNORD27 /// SNORD28 /// SNORD29 /// SNORD31 / Fold change vs veh, SNHG1 /// SNORD22 /// SNORD25 /// SNORD26 /// SNORD27 /// SNORD28 /// SNORD29 /// SNORD31 / Fold change (Aza/veh), C12orf56 (ProbeSet 11735607_a_at) / Fold change (ACY-1035/veh), C12orf56 (ProbeSet 11735607_a_at) / Fold change (Aza/veh), FGFR1OP (ProbeSet 11751329_s_at) / Fold change (ACY-1035/veh), FGFR1OP (ProbeSet 11751329_s_at) / Fold change (Aza/veh), VPS36 (ProbeSet 11739960_a_at) / Fold change (ACY-1035/veh), VPS36 (ProbeSet 11739960_a_at) / RFU SYPL1 (11715823_x_at) / Fold change /veh SYPL1 (11715823_x_at) / RFU IGFBP7 (11715501_s_at) / Fold change /veh IGFBP7 (11715501_s_at) / RFU REEP3 (11722064_at) / Fold change /veh REEP3 (11722064_at) / RFU IGLL1 (11728026_x_at) / Fold change /veh IGLL1 (11728026_x_at): dose or concentration left out as unconfirmed
Conditions: MV-4-11 cells, 48 hours

Compound: Nc1ccc(-c2cccs2)cc1NC(=O)c1ccc2c(c1)cc(C1CC1)n2CCN1CCOCC1 [ACY-1035]
- Fold change /veh TMEM53 (11763286_at): 0.91
